Measured values taken from BindingDB's records for doi:10.1111/cbdd.12307 (Peking University, 2014).
pIC50: −log10 of the molar value.

Biological target: T1, Phospholipase A2, membrane associated (Homo sapiens, UniProt P14555)
T1 sequence (P14555 whole entry): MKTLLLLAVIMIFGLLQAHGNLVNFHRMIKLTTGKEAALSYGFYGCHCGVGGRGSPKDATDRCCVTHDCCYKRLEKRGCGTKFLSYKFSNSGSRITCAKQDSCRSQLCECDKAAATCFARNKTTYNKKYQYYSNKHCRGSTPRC
Assay: Inhibitory Activity Assay
Settings: pH 8
Procedure: The reaction mixture contained 160 uL of reaction buffer [50 mM Tris-HCl (pH 8.0), 100 mM NaCl, 5 ug/mL bovine serum albumin (BSA), 5 uM CaCl2, and 10 mM anilinonaphthalene sulfonate (ANS)], 20 uL of substrate stock solution (2 mM DMPC), and 2 mM of sodium deoxycholate in water. After 5 min of sonication, 10 uL of inhibitor stock solution (in DMSO) were incubated at 28 uC for 10 min. The reactions were started by adding 10 uL of hnps-PLA2 stock solution (0.1 mg/mL) and monitored by excitation at 377 nm and emission at 470 nm.

| Compound | pIC50 |
| --- | --- |
| O=C(N[C@@H](Cc1ccc([NH+]([O-])O)cc1)C(=O)O)OCC1c2ccccc2-c2ccccc21 (some centres not stated) [DCSD 001360 (3)] | 4.67 |
| O=C(CCc1ccccc1)CC[C@H](NC(=O)OCC1c2ccccc2-c2ccccc21)C(=O)O [DCSD 001850 (5)] | 4.46 |
| O=C(N[C@@H](Cc1ccc(O)c([NH+]([O-])O)c1)C(=O)O)OCC1c2ccccc2-c2ccccc21 (some centres not stated) [DCSD 002267 (4)] | 4.39 |
| O=C(N[C@H](Cc1ccccc1)C(=O)O)OCC1c2ccccc2-c2ccccc21 [DCSD 002855 (1)] | 4.32 |

Molecules with a higher pIC50, results first:

| pIC50 | Compound |
| --- | --- |
| 4.91 | O=C(COc1ccc2ccccc2c1)N/N=C/c1cccc(OC(=O)c2cc([NH+]([O-])O)cc([NH+]([O-])O)c2)c1 (configuration not stated) [SPECS AG-690/40108589 (7)] |
| 5.05 | O=C(COc1ccc(/C=N/NC(=O)c2ccccc2[NH+]([O-])O)cc1)Nc1cccc([NH+]([O-])O)c1 (configuration not stated) [SPECS AG-690/40696769 (6)] |
| 5.07 | O=C(N[C@H](Cc1ccc2ccccc2c1)C(=O)O)OCC1c2ccccc2-c2ccccc21 [DCSD 002847 (2)] |
